Measurements as given in patent US20240300934A1, “COMPOUNDS FOR MODULATING MYCOBACTERIUM TUBERCULOSIS RESPONSE” (priority 2021, published 2024).
Converted amounts (≈) assume the structure as drawn. Read-outs that look alike come from different tables or passages of the source. Marks after values point to notes of the source that are not given here.

Experiments:
[1] = test system: rv2390c′::GFP reporter Mtb strain; type: cell-based, Mycobacterium tuberculosis; settings: for rv2390c′::GFP Cl− response phenotype: compared to C6; for rv2390c′::GFP reporter signal upon Mtb exposure to high [Cl−] (in words): 10 μM, 250 mM NaCl
[2] = test system: Mtb; experiment: Mtb growth assay in cholesterol media (OD600); type: cell-based, Mycobacterium tuberculosis; settings: for Growth inhibition in cholesterol media phenotype: compared to C6
[3] = test system: murine bone marrow derived macrophages phagosome; experiment: Phagosomal maturation assays with sensor beads; type: cell-based, mouse; settings: 10 μM
Procedure: Carboxyfluorescein (pH readout), DQ-BSA/Alexa Fluor 594 (AF594) (proteolysis readout), and 10,10′-Bis[3-carboxylpropyl]-9,9′-biacridinium (BAC)/AF594 (Cl^− readout) beads were generated as previously described (Podinovskaia et al, 2013; Tan et al, 2013; Tan et al, 2017; Yates et al, 2008). Bone marrow-derived macrophages were isolated from C57BL/6J mice (Jackson Laboratories) and maintained as described above. 2×10^5 macrophages/well were seeded into 96-well clear bottom black plates, and utilized in assays one-two days post-seeding. […] Assay buffer consisted of PBS, pH 7.2, supplemented with 5% FBS, 5 mM dextrose, 1 mM CaCl2, 2.7 mM KCl, and 0.5 mM MgCl2 in the case of assays with the carboxyfluorescein or DQ-BSA/AF594 beads (Buter et al, 2019; Dutta et al, 2020). For assays with the BAC/AF594 beads, assay buffer consisted of PBS, pH 7.2, supplemented with 5% FBS, 5 mM dextrose, 1 mM calcium acetate, 1.35 mM K2SO4, and 0.5 mM MgSO4 (Tan et al, 2013). Sensor beads at ˜2-5 beads/macrophage in appropriate assay buffer were finally added, with data acquisition on a Biotek Synergy H1 microplate reader with bottom read signal detection started within 2-3 minutes of bead addition. Excitation/emission wavelengths were 450 nm/520 nm and 490 nm/520 nm for carboxyfluorescein, 490 nm/520 nm for DQ-BSA, 365 nm/505 nm for BAC, and 590 nm/617 nm for AF594. Each experiment was run with a total of 3-5 replicate wells/condition, with temperature maintained at 37° C. throughout the assay. Wells were read every 2 minutes for 2 hours for the carboxyfluorescein bead assays, every 2 minutes for 4 hours for the DQ-BSA/AF594 bead assays, and every 1 minute for 2 hours for the BAC/AF594 bead assays. Analyses of the results were performed as previously described (Buter et al, 2019; Dutta et al, 2020; Podinovskaia et al, 2013; Tan et al, 2013).

[4] = test system: Mtb in J774 cells; experiment: Mtb growth in J774 macrophage-like cells (mKO fluorescence); type: cell-based, Mycobacterium tuberculosis; settings: for Inhibition of Mtb growth in J774 cells phenotype: compared to C6; for Mtb growth in J774 cells (in words): 10 μM, 6 days post-infection; for % Reduction of Intracellular Infection (J774.1 cells) at 10 μM cmpd: 10 μM compound
Procedure: For the tertiary screen of selected hit compounds in J774 murine macrophage-like cells, 30,000 J774 cells/well were seeded in bar-coded 384-well black, clear bottom plates in a 30 μl volume in J774 infection media (DMEM+10% FBS+1 mM sodium pyruvate+2 mM L-glutamine) using a ThermoFisher Multidrop Combi reagent dispenser, one day prior to assay start. On the day of the assay, log-phase Mtb constitutively expressing mKO were pelleted and resuspended in 1 ml basal uptake buffer (0.5% bovine serum albumin+25 mM dextrose+0.5 mM MgCl2+1 mM CaCl2+0.1% gelatin in phosphate buffered saline (PBS), passed 6× though a tuberculin syringe with a 25 G×5/8″ needle, then resuspended in J774 infection media to a final OD600=0.2. 10 μl of this bacterial suspension was added to each well of the 384-well plates containing the J774 cells, followed by addition of 10 μl of the appropriate compounds (pre-aliquoted in v-bottom plates in a 1:1 mix of PBS:J774 infection media). Addition of Mtb and compounds were conducted using a Janus Ministation. For each test plate, two columns of controls (16 wells each) were included, with one column consisting of treatment with DMSO as a carrier control (negative control), and the other column consisting of treatment with 5 μM rifampicin (positive control). This tertiary assay was done as a dose-response assay in duplicate runs, with compounds tested beginning at a final concentration of 20 μM and two-fold dilutions down to 0.039 μM. Plates were kept in humidified ziplock bags in a 37° C., 5% CO2 incubator. 6 days post-infection, mKO fluorescence signal was read using a PerkinElmer EnVision multimode plate reader (bottom read filter, excitation 530/8 nm, Bodipy TMR D555 single mirror, emission 579/25 nm). mKO fluorescence in DMSO-treated control samples were defined as 100% growth, and fluorescence observed in treatment conditions calculated as a percentage from that set value.
For J774 infection in 96-well plates, 180,000 J774 cells were seeded per well in 180 μl of J774 infection media one day prior to infection. On the day of the assay, log-phase Mtb constitutively expressing mKO were pelleted and resuspended in 1 ml basal uptake buffer, passed 6× though a tuberculin syringe with a 25 G×5/8″ needle, then resuspended in J774 infection media to a final OD600=0.2. Media was removed from 96-well plate containing the J774 cells, with 140 μl of fresh J774 infection media added back to each well. 40 μl of the Mtb suspension at OD600=0.2 was added to each well, followed by addition of appropriate concentration of compound or DMSO in a 20 μl final volume in J774 infection media (compound final concentration 10 μM, rifampicin final concentration 5 μM, DMSO final concentration 0.1%/well). Bacterial mKO fluorescence was read immediately after infection using a Biotek Synergy Neo2 microplate reader (bottom read monochromator, excitation 543/10 nm, emission 565/10 nm), and again 6 days post-infection. Plates were kept in humidified ziplock bags in a 37° C., 5% CO2 incubator. mKO fluorescence in DMSO-treated control samples were defined as 100% growth, and fluorescence observed in treatment conditions calculated as a percentage from that set value.

[5] = Mouse liver microsomal stability; type: in vitro ADME; settings: mouse liver microsomes; for half-life: read-out: MLM t1/2
Procedure: (§1) Assays examining mouse and human liver microsomal stability, kinetic aqueous solubility, mouse and human plasma protein binding and stability, and human cytochrome P450 inhibition characteristics of the compounds were run by BioDuro, Incorporated, using standard protocols as previously described (Wang et al, 2020). hERG inhibition assays were also performed by BioDuro, Incorporated.

[6] = Mouse pharmacokinetics, single oral dose; type: in vivo, CD-1 mice; settings: for Kp at 5 h / AUC(0-t): female, single 25 mg/kg po dose; for Kp at 5 h: CD-1, mouse, lung vs plasma, read-out: Mouse PK Clung/Cplasma at t = 5 h; for AUC(0-t): mouse, CD-1 mice, read-out: Mouse PK AUC0-5h
Procedure: Blood samples were collected in K2EDTA coated tubes pre-dose, 0.5, 1, 3 and 5 hrs post-dose, placed on ice, and centrifuged to recover plasma. The recovered plasma was kept at −80° C. as needed prior to analysis, which was performed as previously described (Wang et al, 2020). In brief, a Sciex Applied Biosystems Qtrap 4000 triple-quadrupole mass spectrometer coupled to an Agilent 1260 HPLC system was used for HPLC coupled to tandem mass spectrometry (LC-MS/MS) quantitative analysis of the samples, with chromatography attained using an Agilent Zorbax SB-C8 column (2.1×30 mm; particle size, 3.5 μm) and a reverse phase gradient elution. The aqueous mobile phase consisted of Milli-Q deionized water with 0.1% formic acid (A), while the organic mobile phase was 0.1% formic acid in acetonitrile (B). The gradient set-up was as follows: 5-90% B over 2 mins, 1 min at 90% B, then an immediate drop to 5% B and an additional 1 min at 5% B. Quantification of molecules was carried out via multiple-reaction monitoring of parent/daughter transitions in electrospray positive-ionization mode, and sample analyses accepted if quality control and standard samples had concentrations within 20% of the nominal concentration. Preparation of compounds for generation of standard curves and quality control spiking solutions were performed as previously described (Wang et al, 2020). Data were processed using Analyst software (Version 1.6.2; Applied Biosystems Sciex).

[7] = test system: Mtb in bone marrow-derived macrophages (BMDMs); experiment: Mtb growth in primary murine bone marrow-derived macrophages (CFU); type: cell-based, Mycobacterium tuberculosis; settings: 10 μM; added 2 hrs post-infection; eight-day time-course
Procedure: C57BL/6J wild type mice (Jackson Laboratories) were used for extraction of bone marrow-derived macrophages. Cells were harvested and expanded in DMEM containing 10% FBS, 15% L-cell conditioned media, 2 mM L-glutamine, 1 mM sodium pyruvate, and penicillin/streptomycin as needed in a 37° C. incubator in a 5% CO2 atmosphere. […] Macrophages were lysed with water containing 0.01% sodium dodecyl sulfate and a dilution series of the samples plated on 7H10 agar for CFU determination.

[8] = Kinetic aqueous solubility in pH 7.4 PBS; type: physicochemical; settings: read-out: Kinetic Aqueous Solubility S
Procedure: as §1

[9] = test system: J774 cells; experiment: Intracellular drug accumulation assay in J774 cells; settings: 24 h exposure; uninfected J774 cells
[10] = test system: Mtb; experiment: C3HeB/FeJ murine Mtb infection model; type: in vivo, C3HeB/FeJ mice; settings: 150 mg/kg, 5 days/week oral gavage for 2 weeks, started 2 or 6 weeks post-infection
Procedure: C3HeB/FeJ wild type mice (Jackson Laboratories) were infected intranasally with 10^3 CFUs of Mtb (35 μl), under light anesthesia with 2% isoflurane (MacGilvary et al, 2019; Sukumar et al, 2014; Tan et al, 2013). […] The next day the suspension was homogenized by bead beating with 5 mm steel beads in a TOMY microtube mixer (2×20 s), and stored at 4° C. until use. […] Administration began at two or six weeks post-infection as indicated. At time of sacrifice, the left lobe and accessory right lobe of the lung were homogenized in PBS+0.05% Tween 80 and serial dilutions plated on 7H10 agar plates with 100 μg/ml cycloheximide for bacterial load determination. The remaining three right lobes were fixed in 4% PFA in PBS. One lobe was used for histological analysis by standard hematoxylin and eosin (H&E) staining (Tufts Comparative Pathology Services). A Nikon Eclipse E400 with a SPOT insight color digital camera was used to image the histology samples.

| Structure (SMILES) | rv2390c′::GFP Cl− response phenotype [1] | Growth inhibition in cholesterol media phenotype [2] | Inhibition of Mtb growth in J774 cells phenotype [4] | rv2390c′::GFP reporter signal upon Mtb exposure to high [Cl−] (in words) [1] | Mtb bacterial load / growth in primary murine BMDM (in words) [7] | Mtb growth in J774 cells (in words) [4] | half-life [5] | Kp at 5 h [6] | AUC(0-t) ([6]; plasma) | % Reduction of Intracellular Infection (J774.1 cells) at 10 μM cmpd [4] | also measured |
| --- | --- | --- | --- | --- | --- | --- | --- | --- | --- | --- | --- |
| CCSc1ncc(CN2CCN(c3nc4ccccc4[nH]3)CC2)cn1 [JSF-4299, 2-(4-((2-(ethylthio)pyrimidin-5-yl)methyl)piperazin-1-yl)-1H-benzo[d]imidazole] | Y | Y | Y | – | – | – | – | – | – | – | macrophage phagosomal proteolytic activity ([3]; DQ-BSA/AF594 beads): decrease in the extent of proteolysis; macrophage phagosomal acidification ([3]; carboxyfluorescein beads): delay in acidification |
| O=C(c1cnc2ccccn12)N1CCCC(CCc2cccc(C(F)(F)F)c2)C1 (centres unmarked) [Compound C5, Imidazo[1,2-a]pyridin-3-yl(3-(3-(trifluoromethyl)phenethyl)piperidin-1-yl)methanone] | – | – | – | increased rv2390c′::GFP reporter signal | significant decrease in bacterial load | Mtb growth inhibition | – | – | – | – | MLM t1/2 [5]: 4.98 min; rv2390c′::GFP response phenotype ([1]; screen hits, high chloride (250 mM NaCl, pH 6.4)): Increases induction in high; AUC0-5 h ([6]; single 5 mg/kg oral (po) dose, plasma, CD-1 mice (n=2)): 42 ng·h/mL; inhibition at 10 µM ([4]; Mycobacterium tuberculosis, J774CELLS, J774, 144 h, read-out: % inhibition compared to Rif in J774 at 10 μM): 50.9 ± 3.2%; inhibition at 20 µM ([4]; Mycobacterium tuberculosis, J774CELLS, J774, 144 h, read-out: % inhibition compared to Rif in J774 at 20 μM): 55%; solubility kinetic ([8]; pH 7.4 phosphate buffered saline (PBS)): 6.67 µM (≈ 2.68 µg/mL) |
| c1ccc2oc(N3CCN(Cc4cncnc4)CC3)nc2c1 [JSF-4297, 2-(4-(pyrimidin-5-ylmethyl)piperazin-1-yl)benzo[d]oxazole] | N | N | N | lost the ability | loss of the ability to inhibit Mtb growth | loss of the ability to inhibit Mtb growth | – | – | – | – | Mtb growth in cholesterol media (in words) ([2]; 10 μM, OD600): no longer inhibited Mtb growth in cholesterol media; intracellular accumulation in J774 cells [9]: no detectable accumulation |
| CCSc1ncc(CN2CCN(c3nc4ccc(C#N)cc4o3)CC2)cn1 [JSF-4538, 2-(4-((2-(ethylthio)pyrimidin-5-yl)methyl)piperazin-1-yl)benzo[d]oxazole-6-carbonitrile] | Y | – | – | – | – | – | 25.5 min | 0.3 | 98700 ng·h/mL | 36.4 ± 2.6% | Mtb growth in vivo (lung CFUs) [10]: inhibits Mtb growth in vivo |
| CCSc1ncc(CN2CCN(c3nc4cc(F)c(F)cc4o3)CC2)cn1 [JSF-4525, 2-(4-((2-(ethylthio)pyrimidin-5-yl)methyl)piperazin-1-yl)-5,6-difluorobenzo[d]oxazole] | Y | – | Y | – | – | – | 39.8 min | 0.33 | 29700 ng·h/mL | 46.3 ± 2.9^b % | solubility kinetic ([8]; PBS, pH 7.4, aqueous buffer, kinetic from dmso stock, Table 2): 0.952 µM (≈ 0.373 µg/mL) |
